Measurements published in US20190231884A1, “SYNTHETIC PULMONARY SURFACTANT COMPOSITION FOR TREATING LUNG CONDITIONS” (priority 2016, published 2019).
Converted amounts (≈) assume the structure as drawn.

Tests used:
[1] = system: M. tuberculosis H37Rv reference strain; experiment: MGIT 960 mycobacterial growth inhibition, H37Rv; assay type: cell-based, Mycobacterium tuberculosis; conditions: for GROWTH UNITS (Day 8) / SUSCEPTIBILITY MIC99: H37Rv
[2] = system: M. tb X51 clinical isolate; experiment: microbe, parasite or virus in culture; assay type: cell-based, Mycobacterium tuberculosis; conditions: for GROWTH UNITS (Day 8) / SUSCEPTIBILITY MIC99: X51
[3] = Linezolid 1 μg/ml, growth control GU 400

With `CC(=O)NC[C@H]1CN(c2ccc(N3CCOCC3)c(F)c2)C(=O)O1` [Linezolid, (S)-N-[[3-(3-fluoro-4-morpholinylpheny1)-2-oxo-5-oxazolidinyl]methyl] acetamide] the “GROWTH UNITS (Day 8)” value ([1]; Linezolid 0.125 μg/ml) was 12030, the “SUSCEPTIBILITY MIC99” value ([1]; Linezolid 0.125 μg/ml) was “− (the GU of the drug-containing tube were more than 400, the results were defined as showing resistance)” and the “GROWTH UNITS (Day 8)” value ([1]; Linezolid 0.25 μg/ml) was 12878. The “SUSCEPTIBILITY MIC99” value ([1]; Linezolid 0.25 μg/ml) was “− (the GU of the drug-containing tube were more than 400, the results were defined as showing resistance)”, the “GROWTH UNITS (Day 8)” value ([1]; Linezolid 0.5 μg/ml) was 4674 and the “SUSCEPTIBILITY MIC99” value ([1]; Linezolid 0.5 μg/ml) was “− (the GU of the drug-containing tube were more than 400, the results were defined as showing resistance)”. The “SUSCEPTIBILITY MIC99” value ([1]; Linezolid 1 μg/ml) was “+ (when the GU of the drug-containing tube were less than 400, the results were considered to show susceptibility)”, the “GROWTH UNITS (Day 8)” value [1, 3] was 377 and the MIC ([1]; Mycobacterium tuberculosis, H37Rv Strain, read-out: Minimum Inhibitory Concentration) was 1 µg/mL (≈ 2.96 µM). The MIC ([2]; Mycobacterium tuberculosis, read-out: Minimum Inhibitory Concentration) was 1 µg/mL (≈ 2.96 µM), the “GROWTH UNITS (Day 8)” value ([2]; Linezolid 0.125 μg/ml) was 9164 and the “SUSCEPTIBILITY MIC99” value ([2]; Linezolid 0.125 μg/ml) was “− (the GU of the drug-containing tube were more than 400, the results were defined as showing resistance)”. For the same molecule, the “GROWTH UNITS (Day 8)” value ([2]; Linezolid 0.25 μg/ml) was 6727, the “SUSCEPTIBILITY MIC99” value ([2]; Linezolid 0.25 μg/ml) was “− (the GU of the drug-containing tube were more than 400, the results were defined as showing resistance)” and the “GROWTH UNITS (Day 8)” value ([2]; Linezolid 0.5 μg/ml) was 714. For the same molecule, the “SUSCEPTIBILITY MIC99” value ([2]; Linezolid 0.5 μg/ml) was “− (the GU of the drug-containing tube were more than 400, the results were defined as showing resistance)”, the “SUSCEPTIBILITY MIC99” value ([2]; Linezolid 1 μg/ml) was “+ (when the GU of the drug-containing tube were less than 400, the results were considered to show susceptibility)” and the “GROWTH UNITS (Day 8)” value [2, 3] was 0.
